The values below come from publication PMC6132577, “Methyl group reorientation under ligand binding probed by pseudocontact shifts” (Journal of Biomolecular Nmr, 2018).

The target of one test is T1, WT ntd-HSP90 (Homo sapiens, UniProt P07900).
T1 construct: made in house
Description: NMR titration (15N-labelled protein, amide groups) fitted with TITAN, 1:1 binding model. The following applies: four amide protons, range of values from repeated global fits, 298 K, pH 7.7. The protocol: Ntd-HSP90 in 50 mM Tris-HCl and 50 mM NaCl buffer, pH 7.7, was titrated with 4-(2-Fluorophenyl)-2-pyrimidinamine, 1, (Fig. 1), a 189 Da known ligand of ntd-HSP90 that was kindly provided by AstraZeneca (Göteborg, Sweden). Titrations were performed with three ntd-HSP90 mutants, S50C/D54C, A101C/N105C and T149C/I187C tagged with Lu^3+-CLaNP-5 or Yb^3+-CLaNP-5. The concentrations of S50C/D54C, A101C/N105C T149C/I187C were 20, 103 and 65 µM, respectively, for both diamagnetic and paramagnetic forms of the protein. Concentrations (µM) of 1 for titrations with S50C/D54C, A101C/N105C and T149C/I187C were [0, 39, 59, 88, 132, 198, 296, 444, 667, 1000], [0, 20, 40, 121, 364, 1111] and [0, 40, 89, 200, 442, 665, 1008, 1897], respectively. […] Average CSP were calculated as (ΔH^2 + (ΔC/10)^2)^0.5 for methyl groups and (ΔH^2 + (ΔN/6)^2)^0.5 for amides. PCS were measured using ^1H and for calculations the geometrical average of the proton coordinates in methyl groups were used.
The dissociation constant KD, as well as the dissociation rate constant (kOFF) were calculated with TITAN software (Waudby et al. [2016]) using a 1:1 binding model (A + B ⇆ A − B). […] The WT KD was calculated using a titration performed on the ^15N labelled protein, on the basis of four amide protons (Table S1). […]

The target in test [1] is T2, ntd-HSP90 mutant T149C/I187C tagged with CLaNP-5 (Homo sapiens, UniProt P07900, I187C/T149C).
T2 construct: Three double cysteine mutants of the ntd-HSP90 were designed on the surface of the protein; CLaNP-5 (chemical lanthanoid chelate with Lu3+ or Yb3+, attached to the two engineered Cys); made in house
Description: NMR methyl 13C-1H HSQC titration fitted with TITAN, 1:1 binding model. The following applies: mutant 149C/187C. The method, then:
(§1) Three double cysteine mutants of the ntd-HSP90 were designed on the surface of the protein, S50C/D54C, A101C/N105C and T149C/I187C (Lescanne et al. [2017]). […] The protein was produced labelled with Leu-δ1-δ2/Val-γ1-γ2-[^13CH3] and purified and tagged with CLaNP5 according to a published protocol (Lescanne et al. [2017]). CLaNP-5 was synthesized as described before (Keizers et al. [2007], [2008]).
(§2) Ntd-HSP90 in 50 mM Tris-HCl and 50 mM NaCl buffer, pH 7.7, was titrated with 4-(2-Fluorophenyl)-2-pyrimidinamine, 1, (Fig. 1), a 189 Da known ligand of ntd-HSP90 that was kindly provided by AstraZeneca (Göteborg, Sweden). Titrations were performed with three ntd-HSP90 mutants, S50C/D54C, A101C/N105C and T149C/I187C tagged with Lu^3+-CLaNP-5 or Yb^3+-CLaNP-5. The concentrations of S50C/D54C, A101C/N105C T149C/I187C were 20, 103 and 65 µM, respectively, for both diamagnetic and paramagnetic forms of the protein. Concentrations (µM) of 1 for titrations with S50C/D54C, A101C/N105C and T149C/I187C were [0, 39, 59, 88, 132, 198, 296, 444, 667, 1000], [0, 20, 40, 121, 364, 1111] and [0, 40, 89, 200, 442, 665, 1008, 1897], respectively. The NMR sample volume was 595 µL for all samples, and dilution was neglected, because the biggest volume of ligand solution added was < 5 µL. ^13C-^1H HSQC (Palmer et al. [1991]; Kay et al. [1992]; Schleucher et al. [1994]) spectra were acquired at each titration point, on a Bruker Avance III 800 MHz spectrometer, equipped with a cryogenically cooled TXI-probe head, operating at 298 K. Spectra were processed with nmrpipe (Delaglio et al. [1995]) using the exponential EM apodization function for analysis with TITAN (Waudby et al. [2016]). A similar titration was performed with WT ntd-HSP90 observing the amide groups. Average CSP were calculated as (ΔH^2 + (ΔC/10)^2)^0.5 for methyl groups and (ΔH^2 + (ΔN/6)^2)^0.5 for amides. PCS were measured using ^1H and for calculations the geometrical average of the proton coordinates in methyl groups were used.
(§3) The dissociation constant KD, as well as the dissociation rate constant (kOFF) were calculated with TITAN software (Waudby et al. [2016]) using a 1:1 binding model (A + B ⇆ A − B). TITAN fits both the equilibrium constant (KD) and the dissociation rate constant (kOFF) on the basis of the CSP and line broadening. A global fit of the resonances of five methyl groups (Table S1) was performed and then one at the time was taken out and the fit repeated. The WT KD was calculated using a titration performed on the ^15N labelled protein, on the basis of four amide protons (Table S1). The ranges of values obtained in this way are reported in Table 1 and provide a more realistic error range than the fit error. […] For these two mutants, a 50 µM variation of the KD results in a change of the extrapolated CSP of 0.01 ppm at most, half the error used for the further calculations. For mutant 149C/187C a KD of 50 µM was used to extrapolate the CSP.

Test [2] concerns the target T3, ntd-HSP90 mutant S50C/D54C tagged with CLaNP-5 (Homo sapiens, UniProt P07900, D54C/S50C).
T3 construct: Three double cysteine mutants of the ntd-HSP90 were designed on the surface of the protein; CLaNP-5 (chemical lanthanoid chelate with Lu3+ or Yb3+, attached to the two engineered Cys); made in house
Described as above. The following applies: mutant 50C/54C. The method, then:
as §1, §2, §3

In test [3] the target is T4, ntd-HSP90 mutant A101C/N105C tagged with CLaNP-5 (Homo sapiens, UniProt P07900, A101C/N105C).
T4 construct: Three double cysteine mutants of the ntd-HSP90 were designed on the surface of the protein; CLaNP-5 (chemical lanthanoid chelate with Lu3+ or Yb3+, attached to the two engineered Cys); made in house
The description is as above. The following applies: mutant 101C/105C. The protocol: as §1, §2, §3

The mark [4] stands for this setting: CLaNP-5 tagged, five methyl groups, range of values from repeated global fits, 298 K, pH 7.7.
Where [5] appears, read: CLaNP-5 tagged, five methyl groups, range of values from repeated global fits, 298 K, pH 7.7, read-out: KD.
Setting [6] is: single value used to extrapolate CSP, read-out: KD used for the calculation of the 100% bound state CSP.

Where two headings read alike, the source gives them in different places.

Usually Kd stands for the equilibrium constant for the complex coming apart. As usually defined, the koff is the first-order rate constant of dissociation. A low value points to slow dissociation. For `Nc1nccc(-c2ccccc2F)n1` [compound 1, 4-(2-Fluorophenyl)-2-pyrimidinamine], the Kd was 160 to 220 µM on WT ntd-HSP90; 41 to 45 µM in test [1] (setting [5]); 50 µM in test [1] (single value used to extrapolate CSP, read-out: KD used to extrapolate the CSP); 195 to 238 µM in test [2] (setting [5]); 200 µM in test [2] (setting [6]); 140 to 171 µM in test [3] (setting [5]). In addition, the Kd in test [3] (setting [6]) is 150 µM. Besides, the off-rate constant (koff) on WT ntd-HSP90 was in the range of 1400 to 1800 s⁻¹; in test [1] (setting [4]), 1300 to 1900 s⁻¹; in test [2] (setting [4]), 1500 to 2300 s⁻¹; in test [3] (setting [4]) it was 1080 to 1300 s⁻¹.
